Test results reported in patent US11773051B2, “S-enantiomers of beta-hydroxybutyrate and butanediol and methods for using same” (Buck Institute for Research on Aging, priority 2017, dated 2023).

Tests used:
[1] = test system: T1, histone deacetylases (HDAC); experiment: in vitro HDAC assay, commercial assay kit Fluor de Lys Green from Enzo; format: biochemical; conditions: sodium salt
T1 construct: other: sodium salt; same assay as S-BHB
Experimental: (§1) The activity of S-BHB and R-BHB enantiomers in inhibiting histone deacetylases was tested.
(§2) This is an in vitro HDAC assay performed using the sodium salt of S-BHB and R-BHB with a commercial assay kit, Fluor de Lys Green from Enzo.
(§3) Without being bound to a particular theory, it is believed the R-BHB might be being metabolized more rapidly than the S-BHB resulting in the diminished maximum inhibition.

[2] = test system: histone deacetylases (HDAC); experiment: as above; format: biochemical; conditions: comparison with literature value
Experimental: as §1, §2, §3

C[C@@H](O)CC(=O)O [R-BHB, reference compound]
maximum inhibition of HDAC activity ([1]; same assay as S-BHB, partial inhibition): about 50%

C[C@H](O)CC(=O)O [S-BHB, S-beta-hydroxybutyrate]
potency for HDAC inhibition relative to potency of R-BHB in a different, previously published assay (Shimazu et al. 2013) [2]: ≤ 2 fold | inhibition of deacetylase activity (result in words) ([1]; FIG. 2): dose-dependent inhibition | IC50 ([1]; FIG. 2, read-out: HDAC activity inhibition IC50): 7.3 mM
